# Test results: US9943522B2, “Use of cathepsin K inhibition for the treatment and/or prophylaxis of pulmonary hypertension and/or heart failure” (BAYER INTELLECTUAL PROPERTY GMBH, priority 2011, dated 2018)
# Key:
# [1] = system: hypoxia-induced pulmonary hypertension in the guinea pig; test: Hypoxia-induced pulmonary hypertension in the guinea pig: right ventricular hypertrophy (RV/LV+S); type: in vivo
# Text: Chronic hypoxia is a literature described and accepted animal model for pulmonary hypertension and is described for different species (Am J Physiol Lung Cell Mol Physiol 297: L1013-L1032, 2009; J Pharmacol Sci 107, 8-14 (2008); Pharmacology & Therapeutics 92 (2001) 1-20). Acute hypoxia increases pulmonary arterial pressure through pulmonary arterial constriction. Chronic hypoxia causes more severe pulmonary hypertension through vascular architectural changes and an increase of hematocrit (Hct) in the blood. […]
# The CTSK inhibitor Odanacatib was tested in a guinea pig model for pulmonary hypertension as described in the examples section. […] The heart was dissected, and the ratio of the right ventricle to left ventricle plus septum weight (RV/LV+S) was calculated as an index of right ventricular hypertrophy. The right ventricle was snap-frozen on dry ice for RNA extraction and quantitative real-time polymerase chain reaction. […]
# (§1) Male Dunkin Hartley guinea pigs weighing approximately 250 g were randomized to three different treatment groups (n=7-8 animals/group; control+placebo, hypoxia+placebo, hypoxia+Odanacatib). […] The heart was dissected, and the ratio of the right ventricle to left ventricle plus septum weight (RV/LV+S) was calculated as an index of right ventricular hypertrophy. […]
# [2] = system: ANP; test: Relative expression of ANP in heart right ventricle, hypoxia-induced pulmonary hypertension model (TaqMan RT-PCR); type: in vivo, guinea pig; details: hypoxia 28 days, Odanacatib infusion, compared to placebo group; FIG. 2
# Method: (§2) To analyse the disease state of the animals and determine the efficacy of Odanacatib treatment, the expression of marker genes were performed. […] Due to the known correlation of increased ANP levels and disease stage in heart failure patients and animal models, the increased expression of […] seems to be correlated with pulmonary hypertension.
# (§3) Guinea pig or dog tissues were pulverized by grinding with liquid nitrogen. Total RNA was extracted, DNase I digestion was performed to remove residual genomic DNA and the RNA were reverse transcribed using random hexomer primers. Quantitative TaqMan RT-PCR analysis was performed using the Applied Biosystems PRISM 7900 sequence detection system. […] Results were normalized to L32 (dog) or b-actin (guinea pig) controls, and relative expression was calculated according to the following formula: relative expression=2(20-(CT(probe)-CT(L32/b-actin))). […]
# as §1, with “hypertrophy. The right ventricle was snap-frozen on dry ice for RNA extraction and quantitative real-time polymerase chain reaction.” for “hypertrophy.”
# [3] = system: LTBP2; test: Relative expression of LTBP2 in heart right ventricle, hypoxia-induced pulmonary hypertension model (TaqMan RT-PCR); type: in vivo, guinea pig; details: hypoxia 28 days, Odanacatib infusion, compared to placebo group; FIG. 3
# Method: as §2, §3
# For relative quantitation of the mRNA distribution of LTBP2, total RNA from each sample was first reverse transcribed. […]
# For relative quantitation of the distribution of LTBP2 mRNA the Applied Bioscience ABI 7900HT Sequence Detection system was used according to the manufacturer's specifications and protocols.
# PCR reactions were set up to quantitate LTBP2 and the housekeeping gene b-actin. […]
# [4] = system: CTSK; test: Relative expression of CTSK in heart right ventricle, hypoxia-induced pulmonary hypertension model (TaqMan RT-PCR); type: in vivo, guinea pig; details: hypoxia 28 days, Odanacatib infusion, compared to placebo group; FIG. 4
# Method: as §2, §3
# as §1, with “hypertrophy. The right ventricle was snap-frozen on dry ice for RNA extraction and quantitative real-time polymerase chain reaction.” for “hypertrophy.”
smiles,measurement,setting,value
CC(C)(F)C[C@H](N[C@@H](c1ccc(-c2ccc(S(C)(=O)=O)cc2)cc1)C(F)(F)F)C(=O)NC1(C#N)CC1 [Odanacatib],ratio of the right ventricle to left ventricle plus septum weight (RV/LV+S),"[1]; Mean±SEM, normobaric hypoxia (10% O2) 28 days, continuous infusion by osmotic minipump day 0-28, hypoxic placebo 0.37±0.01, normoxic control 0.28±0.01",0.30±0.01
same,right ventricle weight,"[1]; hypoxia-induced pulmonary hypertension animals, compared to placebo treated animals",reduction of right ventricle weight
same,expression of ANP in heart (right ventricle) under hypoxia,[2],markedly decreased expression
same,expression of LTBP2 in heart (right ventricle) under hypoxia,[3],markedly decreased expression
same,expression of CTSK in heart (right ventricle) under hypoxia,[4],markedly decreased expression
